Test results as given in BigSolDB 2.1.

## CCOc1ccc2ccccc2c1C(=O)O
In acetone, 278.15 K
  solubility (mole fraction): 0.0535
In acetone, 283.15 K
  solubility (mole fraction): 0.0606
In acetone, 288.15 K
  solubility (mole fraction): 0.0691
In acetone, 293.15 K
  solubility (mole fraction): 0.0781
In acetone, 298.15 K
  solubility (mole fraction): 0.089
In acetone, 303.15 K
  solubility (mole fraction): 0.0994
In acetone, 308.15 K
  solubility (mole fraction): 0.112
In acetone, 313.15 K
  solubility (mole fraction): 0.127
In acetone, 318.15 K
  solubility (mole fraction): 0.142
In acetone, 323.15 K
  solubility (mole fraction): 0.159
In acetonitrile, 278.15 K
  solubility (mole fraction): 0.00615
In acetonitrile, 283.15 K
  solubility (mole fraction): 0.00747
In acetonitrile, 288.15 K
  solubility (mole fraction): 0.00921
In acetonitrile, 293.15 K
  solubility (mole fraction): 0.011
In acetonitrile, 298.15 K
  solubility (mole fraction): 0.0135
In acetonitrile, 303.15 K
  solubility (mole fraction): 0.0165
In acetonitrile, 308.15 K
  solubility (mole fraction): 0.022
In acetonitrile, 313.15 K
  solubility (mole fraction): 0.0254
In acetonitrile, 318.15 K
  solubility (mole fraction): 0.0308
In acetonitrile, 323.15 K
  solubility (mole fraction): 0.0378
In ethanol, 278.15 K
  solubility (mole fraction): 0.0268
In ethanol, 283.15 K
  solubility (mole fraction): 0.0325
In ethanol, 288.15 K
  solubility (mole fraction): 0.0392
In ethanol, 293.15 K
  solubility (mole fraction): 0.0469
In ethanol, 298.15 K
  solubility (mole fraction): 0.0565
In ethanol, 303.15 K
  solubility (mole fraction): 0.0688
In ethanol, 308.15 K
  solubility (mole fraction): 0.0836
In ethanol, 313.15 K
  solubility (mole fraction): 0.101
In ethanol, 318.15 K
  solubility (mole fraction): 0.119
In ethanol, 323.15 K
  solubility (mole fraction): 0.136
In ethyl acetate, 278.15 K
  solubility (mole fraction): 0.015
In ethyl acetate, 283.15 K
  solubility (mole fraction): 0.0174
In ethyl acetate, 288.15 K
  solubility (mole fraction): 0.0204
In ethyl acetate, 293.15 K
  solubility (mole fraction): 0.0239
In ethyl acetate, 298.15 K
  solubility (mole fraction): 0.0279
In ethyl acetate, 303.15 K
  solubility (mole fraction): 0.0331
In ethyl acetate, 308.15 K
  solubility (mole fraction): 0.038
In ethyl acetate, 313.15 K
  solubility (mole fraction): 0.0447
In ethyl acetate, 318.15 K
  solubility (mole fraction): 0.0526
In ethyl acetate, 323.15 K
  solubility (mole fraction): 0.0606
In isobutanol, 278.15 K
  solubility (mole fraction): 0.0111
In isobutanol, 283.15 K
  solubility (mole fraction): 0.0138
In isobutanol, 288.15 K
  solubility (mole fraction): 0.0172
In isobutanol, 293.15 K
  solubility (mole fraction): 0.0208
In isobutanol, 298.15 K
  solubility (mole fraction): 0.0256
In isobutanol, 303.15 K
  solubility (mole fraction): 0.0322
In isobutanol, 308.15 K
  solubility (mole fraction): 0.0396
In isobutanol, 313.15 K
  solubility (mole fraction): 0.0508
In isobutanol, 318.15 K
  solubility (mole fraction): 0.0623
In isobutanol, 323.15 K
  solubility (mole fraction): 0.0779
In isopropanol, 278.15 K
  solubility (mole fraction): 0.0148
In isopropanol, 283.15 K
  solubility (mole fraction): 0.0181
In isopropanol, 288.15 K
  solubility (mole fraction): 0.0228
In isopropanol, 293.15 K
  solubility (mole fraction): 0.0287
In isopropanol, 298.15 K
  solubility (mole fraction): 0.036
In isopropanol, 303.15 K
  solubility (mole fraction): 0.0459
In isopropanol, 308.15 K
  solubility (mole fraction): 0.058
In isopropanol, 313.15 K
  solubility (mole fraction): 0.0733
In isopropanol, 318.15 K
  solubility (mole fraction): 0.0901
In isopropanol, 323.15 K
  solubility (mole fraction): 0.112
In isopropyl acetate, 278.15 K
  solubility (mole fraction): 0.0118
In isopropyl acetate, 283.15 K
  solubility (mole fraction): 0.0136
In isopropyl acetate, 288.15 K
  solubility (mole fraction): 0.0155
In isopropyl acetate, 293.15 K
  solubility (mole fraction): 0.0185
In isopropyl acetate, 298.15 K
  solubility (mole fraction): 0.0213
In isopropyl acetate, 303.15 K
  solubility (mole fraction): 0.0245
In isopropyl acetate, 308.15 K
  solubility (mole fraction): 0.029
In isopropyl acetate, 313.15 K
  solubility (mole fraction): 0.0333
In isopropyl acetate, 318.15 K
  solubility (mole fraction): 0.0389
In isopropyl acetate, 323.15 K
  solubility (mole fraction): 0.0454
In methanol, 278.15 K
  solubility (mole fraction): 0.0304
In methanol, 283.15 K
  solubility (mole fraction): 0.037
In methanol, 288.15 K
  solubility (mole fraction): 0.0443
In methanol, 293.15 K
  solubility (mole fraction): 0.0552
In methanol, 298.15 K
  solubility (mole fraction): 0.0671
In methanol, 303.15 K
  solubility (mole fraction): 0.0821
In methanol, 308.15 K
  solubility (mole fraction): 0.0951
In methanol, 313.15 K
  solubility (mole fraction): 0.114
In methanol, 318.15 K
  solubility (mole fraction): 0.134
In methanol, 323.15 K
  solubility (mole fraction): 0.151
In methyl acetate, 278.15 K
  solubility (mole fraction): 0.0153
In methyl acetate, 283.15 K
  solubility (mole fraction): 0.0181
In methyl acetate, 288.15 K
  solubility (mole fraction): 0.0215
In methyl acetate, 293.15 K
  solubility (mole fraction): 0.0254
In methyl acetate, 298.15 K
  solubility (mole fraction): 0.0301
In methyl acetate, 303.15 K
  solubility (mole fraction): 0.0356
In methyl acetate, 308.15 K
  solubility (mole fraction): 0.0417
In methyl acetate, 313.15 K
  solubility (mole fraction): 0.0495
In methyl acetate, 318.15 K
  solubility (mole fraction): 0.0587
In methyl acetate, 323.15 K
  solubility (mole fraction): 0.0693
In n-pentanol, 278.15 K
  solubility (mole fraction): 0.0174
In n-pentanol, 283.15 K
  solubility (mole fraction): 0.0205
In n-pentanol, 288.15 K
  solubility (mole fraction): 0.0248
In n-pentanol, 293.15 K
  solubility (mole fraction): 0.0296
In n-pentanol, 298.15 K
  solubility (mole fraction): 0.0356
In n-pentanol, 303.15 K
  solubility (mole fraction): 0.0431
In n-pentanol, 308.15 K
  solubility (mole fraction): 0.052
In n-pentanol, 313.15 K
  solubility (mole fraction): 0.0632
In n-pentanol, 318.15 K
  solubility (mole fraction): 0.0744
In n-pentanol, 323.15 K
  solubility (mole fraction): 0.0902
In n-propanol, 278.15 K
  solubility (mole fraction): 0.0212
In n-propanol, 283.15 K
  solubility (mole fraction): 0.0236
In n-propanol, 288.15 K
  solubility (mole fraction): 0.0283
In n-propanol, 293.15 K
  solubility (mole fraction): 0.0345
In n-propanol, 298.15 K
  solubility (mole fraction): 0.0424
In n-propanol, 303.15 K
  solubility (mole fraction): 0.0511
In n-propanol, 308.15 K
  solubility (mole fraction): 0.0632
In n-propanol, 313.15 K
  solubility (mole fraction): 0.0779
In n-propanol, 318.15 K
  solubility (mole fraction): 0.092
In n-propanol, 323.15 K
  solubility (mole fraction): 0.114
In n-propyl acetate, 278.15 K
  solubility (mole fraction): 0.0129
In n-propyl acetate, 283.15 K
  solubility (mole fraction): 0.0149
In n-propyl acetate, 288.15 K
  solubility (mole fraction): 0.0177
In n-propyl acetate, 293.15 K
  solubility (mole fraction): 0.0204
In n-propyl acetate, 298.15 K
  solubility (mole fraction): 0.024
In n-propyl acetate, 303.15 K
  solubility (mole fraction): 0.028
In n-propyl acetate, 308.15 K
  solubility (mole fraction): 0.0322
In n-propyl acetate, 313.15 K
  solubility (mole fraction): 0.0381
In n-propyl acetate, 318.15 K
  solubility (mole fraction): 0.0445
In n-propyl acetate, 323.15 K
  solubility (mole fraction): 0.0516
